Patent US20230357447A1, “TUMOR ACTIVATED MULTISPECIFIC ANTIBODIES FOR TARGETING CD28 AND PD-L1 AND METHODS OF USE THEREOF” (Janux Therapeutics, Inc., priority 2022, published 2023)

Test system: anti-CD28 scFv
Test: Phage binding ELISA (panning) of clonal phage on anti-CD28 scFv, with or without CD28 soluble protein
Conditions: for Phage binding ELISA Backgroud signal / Backgroud signal: clonal phage supernatant; for CD28 scFv signal in presence of CD28 / CD28 scFv signal / Backgroud signal: Phage binding ELISA; for CD28 scFv signal in presence of CD28: captured anti-CD28 scFv pre-incubated with CD28 soluble protein; for CD28 scFv signal: captured biotinylated anti-CD28 scFv; for CD28 scFv signal / Phage binding ELISA CD28 scFv signal: blocking buffer alone; for Backgroud signal: background wells; for Phage binding ELISA CD28 scFv signal in presence of CD28: clonal phage supernatant on captured anti-CD28 scFv pre-incubated with CD28 soluble protein; for Phage binding ELISA CD28 scFv signal: clonal phage supernatant on captured biotinylated anti-CD28 scFv
Experimental: Clonal phage were harvested as crude supernatants and screened via standard enzyme linked immunosorbent assays (ELISAs). […] Prior to the addition of clonal phage, wells were incubated with blocking buffer and CD28 soluble protein or blocking buffer alone. Without washing or aspirating, clonal phage supernatants were then added to the wells and incubated for a short time. Wells were then washed followed by detection of bound phage using a horse radish peroxidase conjugated anti-M13 antibody. Clonal phage of interest were then sent for sequence analysis.

[1] = background (no anti-CD28 scFv signal)

| Substance | Phage binding ELISA Backgroud signal (background signal) | further results |
| --- | --- | --- |
| Phage-208 (MDWCPTDMWIVCFA) | 0.363 |  |
| Phage-92 (MDWCPRHLWHECFF) |  | CD28 scFv signal in presence of CD28: 0.373; CD28 scFv signal: 2.583; Backgroud signal: 0.364 |
| Phage-97 (MDWCPKDLWDYCFA) |  | Backgroud signal: 0.078 |
| Phage-142 (MDWCPVILWDFCFN) |  | Backgroud signal: 0.066 |
| Phage-41 (MAWCPRDKWSECFS) | 0.062 |  |
| Phage-221 (TTWCPTSMWLHCFD) | 0.096 |  |
| Phage-83 (MDWCPRFLWDECFN) | 0.065 |  |
| Phage-65 (MDWCPMYLWNECFN) | 0.064 | Phage binding ELISA CD28 scFv signal in presence of CD28: 0.471; Phage binding ELISA CD28 scFv signal: 2.609 |
| Phage-211 (MDWCPRNMWTVCFL) | 0.060 |  |
| Phage-401 (MDWCPLDMWVLCFA) |  | Phage binding ELISA Backgroud signal [1]: 0.085 |
| Phage-353 (IDWCPLHLWHECYH) | 0.067 |  |
| Phage-430 (IHLCHWVPWIKCSH) |  | Phage binding ELISA Backgroud signal [1]: 2.516 |
| Phage-183 (IDWCPRDLWALCFN) | 0.127 |  |
| Phage-248 (MDWCPRNMWHHCFD) | 0.205 |  |
| Phage-79 (MDWCPRDLWHECFS) | 0.066 |  |
| Phage-294 (MDWCPRSLWDYCFA) | 0.115 |  |
| Phage-52 (MDWCPINLWDECFS) | 0.062 |  |
| Phage-293 (MDWCPRHLWFECFN) | 0.064 |  |
| Phage-178 (LDWCPRDLWHVCFF) | 0.176 |  |
| Phage-167 (MSWCPQDLWHVCFN) | 0.095 |  |
| Phage-91 (MDWCPRDLWFLCYN) |  | CD28 scFv signal in presence of CD28: 0.424; CD28 scFv signal: 2.587; Backgroud signal: 0.060 |
| Phage-176 (MDWCPSDLWHECFH) | 0.075 |  |
| Phage-109 (MDWCPKNLWHVCFN) |  | CD28 scFv signal in presence of CD28: 0.248; CD28 scFv signal: 2.530; Backgroud signal: 0.081 |

| Substance | Phage binding ELISA Backgroud signal (background signal) | further results |
| --- | --- | --- |
| Phage-271 (MDWCPTSFWNRCFH) | 0.102 |  |
| Phage-418 (MYWCPKYMWSECFA) |  | Phage binding ELISA Backgroud signal [1]: 0.072 |
| Phage-376 (MDWCPRHLWTYCFH) | 0.109 |  |
| Phage-57 (MDWCPRHRWVDCFY) | 0.073 |  |
| Phage-118 (MDWCPRHLWDECFF) |  | Backgroud signal: 0.074 |
| Phage-181 (MYWCPRDLWDVCFN) | 0.145 |  |
| Phage-140 (MDWCPMDLWDVCFN) |  | Backgroud signal: 0.090 |
| Phage-232 (MDWCARFVGYGCLD) | 0.948 |  |
| Phage-311 (MDWCPRDLWYQCFN) | 0.069 |  |
| Phage-451 (MDWCPRFWWHECYA) |  | Phage binding ELISA Backgroud signal [1]: 0.246 |
| Phage-203 (MSWCPRDMWFYCYA) | 0.065 |  |
| Phage-415 (MDWCPMYMWHKCFH) |  | Phage binding ELISA Backgroud signal [1]: 0.099 |
| Phage-223 (MDWCPRDRWVDCFF) | 0.066 |  |
| Phage-96 (MDWCPRTLWAYCFN) |  | CD28 scFv signal in presence of CD28: 0.584; CD28 scFv signal: 2.571; Backgroud signal: 0.070 |
| Phage-317 (MDWCPRHLWHECFT) | 0.103 |  |
| Phage-263 (MDWCPRHMWHECFA) | 0.074 |  |
| Phage-256 (MDWCPFDLWHVCYN) | 0.089 |  |
| Phage-450 (EDWCPTDVWPYCFS) |  | Phage binding ELISA Backgroud signal [1]: 0.100 |
| Phage-171 (MNWCPSHLWHMCYF) | 0.195 |  |
| Phage-116 (MDWCPRDLWYACFA) |  | Backgroud signal: 0.072 |
| Phage-76 (MDWCPRYLWSDCFA) | 0.084 | Phage binding ELISA CD28 scFv signal in presence of CD28: 1.530; Phage binding ELISA CD28 scFv signal: 2.727 |
| Phage-168 (MDWCPKDLWHECFN) | 0.073 |  |
| Phage-154 (MDWCPRDLWNVCFA) |  | Backgroud signal: 0.114 |
